# Laboratory results taken from patent publication US20050037033A1, “Microbicidal compositions and methods and use” (priority 2003, published 2005).
# Experiments:
# Type in all cases: cell-based
# [1] = test system: HIV-1 strain BaL (R5 strain); test: Viral entry/binding inhibition assay (VBI), strain BaL; settings: Human immunodeficiency virus 1, Series 2, P4-R5 cells, 2 hour incubation, read-out: 50% Effective Concentrations (IC50)
# Experimental: Viral entry inhibition assay (VBI): Cell-free HIV-1 (strain III-B: X4 strain; or strain BaL: R5 strain) was incubated with compound and P4-R5 cells for 2 hours at 37° C., followed by washing and 48 hour incubation.
# [2] = test system: Gardnerella vaginalis, Mobiluncus spp., Bacteroides spp., Clostridium perfringes, Fusobacterium nucleatum, Peptostreptococcus spp., Porphyromonas spp., and …; test: Anaerobe inhibition assay, all anaerobes tested
# spermatozoa = test: Sperm immobilization assay
# Experimental: To assess sperm-immobilizing activity, compounds were incubated with sperm for 30 seconds in two fold serial dilutions. Those dilutions that immobilized all screened spermatozoa were further diluted several times in buffer and incubated at 37° C., 5% CO2, for 1 h, to verify any possible recovery of motility. Only those dilutions (compound concentrations) that immobilized all spermatozoa with no recovery of motility were considered “positive” and used to calculate the compound's minimum effective concentration (MEC).
structure (smiles),measurement,setting,value
"Cc1cc(C2CCCCC2)n(O)c(=O)c1.NCCO [CO, 6-Cyclohexyl-1-hydroxy-4-methyl-2-(1H)-pyridone ethanolamine salt]",IC50,[1],6.9 µg/mL
same,"minimal inhibitory concentrations (MICs), range over all anaerobes tested",[2],40 to 80 µg/mL
same,cytotoxicity towards spermatozoa,spermatozoa,very little cytotoxicity towards spermatozoa
same,"Sperm immobilization activity, MEC (minimum effective concentration)",spermatozoa; 30 seconds incubation with sperm,"MEC: 1,200-8,800 μg/ml"
